This is an account of results in patent US20180221343A1, “PHARMACEUTICAL COMPOSITION FOR PREVENTING OR TREATING MACULAR DEGENERATION” (KOREA RESEARCH INSTITUTE OF CHEMICAL TECHNOLOGY, priority 2011, published 2018).

In data set [1] the test system is retinal angiogenesis. The data set is described as follows: Laser-induced retinal damage model, retinal angiogenesis by dextran-FITC fluorescence. In kind it is in vivo, Brown Norway rats. Particulars: 2 weeks after administration. Here is the method: The tests were performed by using Brown Norway rats (8 weeks old, male) as animals having retinal damage (15 rats for the experiment group; and 1 rat for normal group, respectively). The retinal Bruch's membrane of each Brown Norway rat was damaged using a Zeiss 532s laser at the intensity of […], 30 ms. On the third day after the laser-damaging, the drug was administered into the vitreous humor in order to observe the retinal vessels. The compound of the present invention, i.e., (2R,3R,4S)-6-amino-4-[N-(4-chlorophenyl)-N-(1H-imidazol-2-ylmethyl)amino]-3-hydroxy-2-methyl-2-dimethoxymethyl-3,4-dihydro-2H-1-benzopyran was administered with the solutions (10 μl of each solution) obtained by dissolving in PBS containing 30% PEG 400 and 10% DMSO, in the concentrations of 0.1 mg/ml and 0.3 mg/ml. Avastin was administered with the solution (10 μl) obtained by dissolving in PBS in the concentration of 2.5 mg/ml. In case of the control group, the PBS (10 μl) was administered. In addition, (2R,3R,4S)-6-amino-4-[N-(4-chlorophenyl)-N-(1H-imidazol-2-ylmethyl)amino]-3-hydroxy-2-methyl-2-dimethoxymethyl-3,4-dihydro-2H-1-benzopyran was intraperitoneally administered with the solution obtained by dissolving in PBS containing 30% PEG 400 and 10% DMSO, in the dose of 25 mg/kg. 2 weeks after the drug administrations, dextran-FITC was injected into the left ventricle in the dose of 25 mg/kg, followed by enucleating the eye after 5 minutes therefrom; and then fixing in a 10% formalin solution. The cornea and the eye lens were removed from the fixed eye, which was then observed under a fluorescence microscope. Angiogenesis was identified by the intensity and leakage of dextran-FITC in the laser-induced damage site; and the results thereof were shown in FIG. 7. The evaluations quantifying the photographs of FIG. 7 were performed by using the Image J (NIH, USA) program and the results thereof were shown in FIG. 8.

The subject of a further data set is corneal epithelial cells. The data set is described as follows: Effects on normal regeneration of corneal epithelial cells in animal models. In kind it is in vivo, rats. Particulars: eye drop 50 μl twice a day. Here is the method: Animal models having damage in the corneal epithelial cells were established by anesthetizing rats (8 weeks old, 200 g to 250 g) with a mixed solution of rompun and zoletil (1 ml/kg) and then scraping the corneal epithelial cells at the center of the cornea in a circular form having 2 mm diameter with a surgical knife. The removal of corneal epithelial cells was confirmed with a 1% fluorescein solution. The eye drop formulation (50 μl) used in Example 2 was administered twice a day, i.e., every 12 hours. The evaluations quantifying the photographs of FIG. 5 were performed by using the Image J (NIH, USA) program and the results thereof were shown in FIG. 6.

Data set [2] concerns retinal angiogenesis. The experiment in a line: Laser-induced retinal damage model in micro pigs, fluorescein intensity. It counts as in vivo, Yutacan Micro pigs. The protocol:
The tests were performed by using Yutacan Micro pigs (3 kg, male) as animal models having retinal damage (15 pigs for the experiment group). The retinal macular degeneration models were established according to the same procedures as in Brown Norway rats of Example 5. The eye drop formulation (100 μl, 0.9 mg/ml) prepared according to the same procedures as in Example 2 was administered four times per day for 2 weeks. For vitreous injection, the solution of the same compound (20 μl, 0.3 mg/ml) was injected into the vitreous humor once. 2 weeks after the administrations, 1% fluorescein was intravenously injected so as to observe the laser-induced damage site; and the effects of the compound of the present invention, i.e., (2R,3R,4S)-6-amino-4-[N-(4-chlorophenyl)-N-(1H-imidazol-2-ylmethyl)amino]-3-hydroxy-2-methyl-2-dimethoxymethyl-3,4-dihydro-2H-1-benzopyran. The evaluations quantifying the photographs of FIG. 9 were performed by using the Image J (NIH, USA) program and the results thereof were shown in FIG. 10.

The subject of the next data set is VEGF receptor 2 (FLK-1). The data set is described as follows: Expression of VEGF receptor 2 (FLK-1) in corneal tissue by RT-PCR. It counts as in vivo, rats. Particulars: subconjunctival injection 20 μl; KR 0.3 mg/ml, Avastin 10 mg/ml. The protocol: The tests were performed for confirming corneal angiogenesis as a marker. To a Trizole™ solution (200 μl), were added each corneal tissue obtained from the rats of Example 1. Total RNAs were isolated and then cDNAs were prepared by using a reverse transcriptase. Each cDNA (5 μl) was mixed with the primer set of FLK-1 and then PCR amplication was performed in a thermocycler under the following conditions; denaturation at 94° C. for 5 minutes, and then 35 cycles of denaturation at 94° C. for 20 seconds, annealing at 58° C. for 1 minute, and extension at 72° C. for 25 seconds. Each PCR product was loaded on 1% agarose gel; and the resulting ethidium bromide fluorescent bands were identified.

Structures are written as SMILES.

As for `COC(OC)[C@]1(C)Oc2ccc(N)cc2[C@H](N(Cc2ncc[nH]2)c2ccc(Cl)cc2)[C@H]1O` [KR-31831, (2R,3R,4S)-6-amino-4-[N-(4-chlorophenyl)-N-(1H-imidazol-2-ylmethyl)amino]-3-hydroxy-2-methyl-2-dimethoxymethyl-3,4-dihydro-2H-1-benzopyran], the “fluorescence intensity at laser-induced damage site (surrounding vessels = 100)” value in the data set with retinal angiogenesis [1] (0.1 mg/ml, VI (10 μl into the vitreous humor)) came to 53±2.8; with retinal angiogenesis [1] (0.3 mg/ml, VI (10 μl into the vitreous humor)), 45±3.1; in the data set on retinal angiogenesis [1] (25 mg/kg, IP (intraperitoneal)) it was 51±5. The results for the “healing rate of corneal epithelial damage” value in the data set on corneal epithelial cells (0 hour after the administration), in the data set on corneal epithelial cells (18 hours after the administration) and in the data set with corneal epithelial cells (36 hours after the administration) were 52±9%, 55±9% and 94±8%, respectively. Further, the “intensity at laser-induced damage site (non-drug administered control group = 1)” value came to 0.46±0.17 with retinal angiogenesis [2] (eye drop formulation 100 μl, 0.9 mg/ml, 4 times per day, 2 weeks) and 0.36±0.14 in the data set on retinal angiogenesis [2] (vitreous injection 20 μl, 0.3 mg/ml, once, 2 weeks after). The “FLK-1 expression in the cornea (control group 100%)” value in the data set with VEGF receptor 2 (FLK-1) is listed as “about 30%”.
